Converted amounts (≈) assume the structure as drawn.
Experiments:
Rattus norvegicus [1] = test: Gastric ulcerogenic activity in ethanol-induced rat model assessed as reduction in gastric lesion at 5 mg/kg, po relative to control; assay type: functional; parameters: scale not given: the % may be the effect or the level left
Rattus norvegicus [2] = test: Gastric ulcerogenic activity in ethanol-induced rat model assessed as reduction in gastric lesion at 10 mg/kg, po relative to control; assay type: functional; parameters: scale not given: the % may be the effect or the level left
Mus musculus = test: Anti-ulcerogenic activity in ethanol-induced gastric ulcer mouse model assessed as reduction in ulcer formation at 350 mg/kg; assay type: functional; parameters: scale not given: the % may be the effect or the level left
[3] = molecular target: T1, Gastrin/cholecystokinin type B receptor (Homo sapiens, UniProt P32239); test: Antagonist activity at human CCKBR; assay type: functional
T1 sequence (P32239 whole entry): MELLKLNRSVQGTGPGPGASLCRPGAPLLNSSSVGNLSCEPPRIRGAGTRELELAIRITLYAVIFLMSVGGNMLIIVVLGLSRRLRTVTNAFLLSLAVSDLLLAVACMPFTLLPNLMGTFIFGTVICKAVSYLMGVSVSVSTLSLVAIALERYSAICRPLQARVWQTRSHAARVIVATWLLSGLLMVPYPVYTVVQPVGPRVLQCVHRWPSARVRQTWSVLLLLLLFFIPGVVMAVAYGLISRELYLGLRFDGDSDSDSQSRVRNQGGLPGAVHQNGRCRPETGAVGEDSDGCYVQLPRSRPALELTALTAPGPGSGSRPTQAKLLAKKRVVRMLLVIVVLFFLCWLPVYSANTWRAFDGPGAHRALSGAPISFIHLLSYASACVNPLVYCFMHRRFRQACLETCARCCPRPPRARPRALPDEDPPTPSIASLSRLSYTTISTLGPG

Rattus norvegicus [4] = test: Gastric ulcerogenic activity in ethanol-induced rat model assessed as reduction in mucosal damage at 50 mg/kg, po relative to control; assay type: functional; parameters: scale not given: the % may be the effect or the level left
Rattus norvegicus [5] = test: Protection against stress-induced Wistar rat model assessed as inhibition of gastric lesion at 500 ug/kg, po measured after 6 hrs relative to control; assay type: functional; parameters: scale not given: the % may be the effect or the level left
[6] = Inhibition of Hydrogen potassium ATPase (unknown origin); parameters: species or system Homo sapiens
[7] = molecular target: T2, Polyunsaturated fatty acid lipoxygenase ALOX15 (Homo sapiens, UniProt P16050); test: Inhibition of 15-LOX (unknown origin)
T2 sequence (P16050 whole entry): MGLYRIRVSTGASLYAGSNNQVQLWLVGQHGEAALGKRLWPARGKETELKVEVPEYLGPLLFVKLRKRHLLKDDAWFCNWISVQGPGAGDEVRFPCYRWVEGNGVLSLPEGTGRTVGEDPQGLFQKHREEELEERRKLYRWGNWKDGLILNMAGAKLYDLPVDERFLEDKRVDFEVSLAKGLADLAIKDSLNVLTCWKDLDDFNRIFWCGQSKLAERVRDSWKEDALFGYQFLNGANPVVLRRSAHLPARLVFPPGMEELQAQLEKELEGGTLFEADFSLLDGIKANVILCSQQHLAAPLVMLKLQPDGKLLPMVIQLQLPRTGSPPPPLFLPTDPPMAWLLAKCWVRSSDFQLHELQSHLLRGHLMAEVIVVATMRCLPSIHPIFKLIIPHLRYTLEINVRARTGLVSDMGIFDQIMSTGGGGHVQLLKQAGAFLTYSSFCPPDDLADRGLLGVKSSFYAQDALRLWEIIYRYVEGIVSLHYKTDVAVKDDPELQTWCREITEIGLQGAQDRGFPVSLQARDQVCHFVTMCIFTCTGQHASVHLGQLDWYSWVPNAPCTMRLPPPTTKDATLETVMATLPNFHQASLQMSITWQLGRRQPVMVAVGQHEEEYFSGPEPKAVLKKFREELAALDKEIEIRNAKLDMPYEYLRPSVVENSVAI

[8] = Acute toxicity in po dosed mouse assessed as lethal dose; assay type: organism-based; conditions: in vivo
Helicobacter pylori [9] = test: Antibacterial activity against Helicobacter pylori NCTC 11637 assessed as reduction in bacterial growth incubated for 24 hrs by broth micro-dilution method; assay type: functional
Helicobacter pylori [10] = test: Antibacterial activity against Helicobacter pylori ATCC 43504 assessed as reduction in bacterial growth incubated for 24 hrs by broth micro-dilution method; assay type: functional

Question: With `CCc1c(O)c(O)c2c(c1O)C(=O)C(O)=C(O)C2=O` as the molecule, how does the Activity (Rattus norvegicus [1]) read?
Answer: 73.51%

Question: And the Activity (Rattus norvegicus [2])?
Answer: 75.5%

Question: Which Activity (Mus musculus) does the source give for `CCCc1ccc([C@H]2N[C@@H](C(=O)OC)Cc3c2[nH]c2ccccc32)cc1` here?
Answer: 81.2%

Question: What about the IC50 [3] of the same molecule?
Answer: 31.9 µM

Question: And the Activity (Rattus norvegicus [4])?
Answer: 81.2%

Question: With `O=C(CSc1nc2ccccc2[nH]1)n1nc(Nc2ccc(O)cc2)cc1-c1ccccc1` as the molecule, how does the Activity (Rattus norvegicus [5]) read?
Answer: 83.1%

Question: Which IC50 [6] does the source give for `Clc1ccc(-c2cc(-c3ccco3)no2)c(Cl)c1` here?
Answer: 42.41 µg/mL (≈ 151 µM)

Question: And the IC50 [7]?
Answer: 8.15 µM

Question: Which LD50 [8] does the source give for `COc1cc(/C=N/NC(=O)Cc2ccccc2Nc2c(Cl)cccc2Cl)cc(OC)c1O` here?
Answer: 168 mg/kg

Question: What does the source list for `C=CCS[S+]([O-])CC=C` (stereo unspecified) [ALLICIN]?
Answer: MIC (Helicobacter pylori [9]): 4 µg/mL (≈ 24.6 µM); MIC (Helicobacter pylori [10]): 6 µg/mL (≈ 37 µM)
